Reference: patent US11865176B2, “Compositions and methods of modulating anti-tumor immunity” (Dana-Farber Cancer Institute, Inc., priority 2016, dated 2024)

System: MC38
Test: MC38 syngeneic colon adenocarcinoma model
Format: in vivo, mouse
Protocol: For syngeneic models, MC38 and CT26 cells were injected into 6-8 week C57BL/6 or Balb/c female mice subcutaneously, respectively. Vehicle control, CDK4/6 inhibitors (trilaciclib or palbociclib) were treated alone or together with PD-1 antibody starting at the indicated time point, using an intermittent dosing schedule of 3 days on, 4 days off until experimental endpoint. PD-1 antibody was administered 3 times a week (Monday, Wednesday and Friday) at 200 μg/mouse through I.P. injection.

Structure (SMILES): CN1CCN(c2ccc(Nc3ncc4cc5n(c4n3)C3(CCCCC3)CNC5=O)nc2)CC1 [trilaciclib]
- increase in CD4+ IL-2 production (TILs, trilaciclib added to PD-1 blockade, day 17): ~2 fold
- tumor growth (intermittent trilaciclib (100 mg/kg, 3 days on, 4 days off) added to PD-1 blockade): nearly eliminated tumor growth
- increase in levels of IFNγ in CD8+ TILs (trilaciclib added to PD-1 blockade, day 17): ~10 fold
